Results taken from US7745152B2, “Method for determining genotoxicity” (priority 2004, dated 2010).
Structures can show the parent of a compound that is named as a salt. Where two headings read alike, the source gives them in different places. *1 amine or outer side, *2 acyl side, *3 side chain or, on linkers, in order; H or OH if unused. Where a SMILES comes first, the peptide text is derived from it. Bridges are numbered along the chain shown (N, C = ends). Roman numbers before positions name the chains, in order. [ ]: non-standard residue; d: D form. Actinocin(9to1) = Cc1c2oc3c(C)ccc(C(=O)[*:1])c3nc-2c(C(=O)[*:2])c(N)c1=O; NMeV = CN[C@H](C(=O)O)C(C)C; Sar = CNCC(=O)O

System: C2C12 cells

Compound	Lowest effective dose (mouse, 24 h) [µg/mL]	Lowest effective dose [µg/mL]	also measured
O=[N+]([O-])c1ccc2c(c1)Cc1ccccc1-2 [2-nitrofluorene]	–	–	Lowest effective dose (mouse): 5.2 µg/mL
O=c1[nH]cc(F)c(=O)[nH]1 [5-fluorouracil]	0.0008	–	–
Cc1c2oc3c(C)ccc(C(=O)N[C@@H]4C(=O)N[C@H](C(C)C)C(=O)N5CCC[C@H]5C(=O)N(C)CC(=O)N(C)[C@@H](C(C)C)C(=O)O[C@@H]4C)c3nc-2c(C(=O)N[C@@H]2C(=O)N[C@H](C(C)C)C(=O)N3CCC[C@H]3C(=O)N(C)CC(=O)N(C)[C@@H](C(C)C)C(=O)O[C@@H]2C)c(N)c1=O [Actinomycin D] (I: T[dV]P[Sar][NMeV] / II: T[dV]P[Sar][NMeV]; ester I:1-I:C, II:1-II:C; linker I:N-II:N via Actinocin(9to1))	–	0.00075	–
N.N.[Cl][Pt][Cl] [Cisplatin]	–	0.15	extreme block of differentiation: cell death in differentiation media: the cells begin to die after 3 days in differentiation media
CC/C(=C(/CC)c1ccc(O)cc1)c1ccc(O)cc1 [Diethylstilbestrol (DES), Diethylstilbestrol]	1.8	–	–
COc1cccc2c1C(=O)c1c(O)c3c(c(O)c1C2=O)C[C@@](O)(C(=O)CO)C[C@@H]3O[C@H]1C[C@H](N)[C@H](O)[C@H](C)O1 [Doxorubicin HCl]	0.005	–	–
CCOS(C)(=O)=O [Methanesulfonate ethyl ester (EMS), Methanesulfonate ethyl ester]	100	–	–
CC(=O)O[C@H]1C(=O)[C@@]2(C)[C@H]([C@H](OC(=O)c3ccccc3)[C@]3(O)C[C@H](OC(=O)[C@H](O)[C@@H](NC(=O)c4ccccc4)c4ccccc4)C(C)=C1C3(C)C)[C@]1(OC(C)=O)CO[C@@H]1C[C@@H]2O [Paclitaxel]	0.002	–	–
Bleomycin sulfate	–	1	–
